# Assay results: PubChem BioAssay AID179 (DTP/NCI, 2004)
# pEC50, pIC50: −log10 of the molar value. Active and inactive are the calls of the source.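 Rule for the calls: active = compounds giving half or more protection of infected cells from virus-caused growth loss, again on retest; inactive = the rest.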
# Tested on: CEM cells HIV-1 protection, formazan growth assay
# Test: NCI AIDS Antiviral Assay
# Conditions: for pIC50: measured here: growth of uninfected CEM cells
# Method in brief: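 Steps: treat uninfected and HIV-1-infected human CEM cells at five drug levels; quantify growth by soluble formazan; retest any compound reaching 50% protection; classify actives from the retest.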
Compound,pEC50,pIC50,outcome
O=C(CCCn1cnc([N+](=O)[O-])n1)NCCn1ccnc1[N+](=O)[O-],< 3.70,< 3.70,–
ONC1=Nc2ccccc2C(=S)N2CSCC12 (centres undefined),< 3.70,< 3.70,–
COC(=O)C(CC1CC(=O)N(CCc2c[nH]c3ccccc23)C1)C(=O)OC (centres undefined),< 3.72,< 3.72,–
Nc1cc2cccc[n+]2c2cc(Cl)ccc12,< 4.70,5.73,–
CC(/C=C/C(=O)c1sc(-n2nc(-c3ccccc3)cc2-c2ccccc2)nc1C)=C\c1ccccc1,< 4.56,< 4.56,–
CCC1CN2CCc3c([nH]c4ccccc34)C2C[C@@H]1CC(=O)N(C)C (some centres undefined),< 3.83,< 3.83,–
CC1(c2cccc([N+](=O)[O-])c2)C(C#N)C(=O)NC(=O)C1C#N (centres undefined),< 3.38,3.61,–
CC(=O)CC[N+](C)(C)C,–,–,inactive
CC(C)(C)OC(=O)NCCc1cccc2c1oc1c(CCC(=O)O)cccc12,< 3.51,3.96,–
O=S(=O)(O)c1c(Cl)c(Cl)c(O)c2ncccc12,< 3.70,5.93,–
O=NNc1ccc(S(=O)(=O)c2ccc3ccccc3c2)cn1,< 3.70,3.95,–
CCC(C)NC(=S)N/N=C(\C)c1ccccn1 (centres undefined),< 6.70,7.80,–
S=C1SC(=Nc2ccccc2)C(=Nc2ccccc2)N1c1ccc2ccccc2c1,< 3.70,4.85,–
Cn1c(=O)c2c(nc3n(Cc4ccccc4)c(=O)c(Br)cn23)n(C)c1=O,< 4.00,4.41,–
O=C(O)[C@@H]1CSC(c2ccc(C(F)(F)F)cc2)N1 (some centres undefined),< 3.70,< 3.70,–
COc1ccc(-c2cncc(-c3ccc(OC)c(OC)c3)c2)cc1OC,< 4.69,< 4.69,–
C[N+](C)(C)CC1CCCC(C[N+](C)(C)C)C1O (centres undefined),–,–,inactive
CC(=O)N1CC(C)(C)c2c1cc(C)c(O)c2C,< 3.70,3.88,–
CCNc1ncc2nc(CC(=O)OC)c(=O)n(CC)c2n1,< 3.70,< 3.70,–

Compound,pEC50,pIC50,outcome
OC1(CCc2ccccc2)COC(C(F)(F)F)(C(F)(F)F)C1 (centres undefined),< 3.70,< 3.70,–
NS(=O)(=O)c1cc2c(cc1Cl)NC(/C(=N/NC(=O)c1ccncc1)C1C(=O)NC(=O)NC1=O)=NS2(=O)=O,< 4.06,< 4.06,–
NC(=O)NNCc1c(-c2ccccc2)no[n+]1[O-],< 3.70,< 3.70,–
COC(=O)C(C(=O)C(=O)Nc1ccccc1C)c1nc2ccc([N+](=O)[O-])cc2[nH]c1=O (centres undefined),–,–,inactive
CCCCN(CCCC)CCCNc1c2c(nc3cc(Cl)ccc13)CCCC2,< 3.70,4.41,–
NCCNCCCNC(=O)c1cc(-c2ccccc2)nc2ccccc12,< 3.70,4.27,–
C=C1CC(CNc2cc(Cl)nc(N)n2)C1,< 3.70,4.26,–
CC1Oc2c3c(cc(O)c2C(=O)[C@@H]1C)OC(C)(C)CC3 (some centres undefined),< 3.70,4.30,–
CCCCCCCCCCCCCCCCC(O)CS(=O)(=O)O (centres undefined),< 4.00,4.79,–
CC1=C(C(=O)CC(=O)C(=O)Nc2ccccc2C)Sc2ccccc2N1,< 4.71,< 4.71,–
Cc1ccncc1.Cc1ccncc1.O=[N+]([O-])[O-].O=[N+]([O-])[O-].[Pt+2],< 3.83,4.16,–
c1cc(-c2cn[nH]c2)cc(-c2cn[nH]c2)c1,–,–,inactive
Nc1ccc2c(c1)Oc1c(F)c(F)cc3c(=O)c(C(=O)O)cn-2c13,< 4.94,4.95,–
O=C(NCCc1ccccc1)c1c(O)c2ccccc2[nH]c1=O,< 3.70,< 3.70,–
O=C1CSC(c2c[nH]c3ccccc23)N1c1cccc([N+](=O)[O-])c1 (centres undefined),< 3.70,4.66,–
N#CC(NCCc1ccccc1)c1ccccc1 (centres undefined),–,–,inactive
Nc1n[n+]([O-])c2ccc(Cl)cc2[n+]1[O-],< 3.70,5.45,–
C[N+]12CCCCC1C(CN1C(=O)Cc3c4ccccc4c(c4ccccc34)CC1=O)CCC2 (centres undefined),< 3.70,< 3.70,–
